Source: patent US6525059B1, “Substituted pyrazoles as p38 kinase inhibitors” (G. D. Searle & Company, priority 1998, dated 2003)
Like-named read-outs stand apart in the source and are kept apart here.

Biological target: T1, human p38 kinase alpha (Homo sapiens, UniProt Q16539)
T1 construct: The coding region of the human p38a cDNA was obtained by PCR-amplification from RNA isolated from the human monocyte cell line THP.1; GST (N); made in house; host or cells: E. coli DH10B
Assay: p38 kinase in vitro assay, phosphorylation of biotinylated PHAS-I with gamma 32P-ATP
Format: biochemical
Settings: for P38 alpha kinase % inhib @ conc. / inhibition at 1 µM: @ 1.0 uM; for inhibition at 1 µM / inhibition at 10 µM: read-out: P38 alpha kinase % inhib @ conc.
Experimental: The ability of compounds to inhibit human p38 kinase alpha was evaluated using two in vitro assay methods. In the first method activated human p38 kinase alpha phosphorylates a biotinylated substrate, PHAS-I (phosphorylated heat and acid stable protein-insulin inducible), in the presence of gamma ^32P-ATP (^32P-ATP). PHAS-I was biotinylated prior to the assay and provides a means of capturing the substrate which is phosphorylated during the assay. p38 Kinase was activated by MKK6. Compounds were tested in 10 fold serial dilutions over the range of 100 μM to 0.001 μM using 1% DMSO. Each concentration of inhibitor was tested in triplicate.
All reactions were carried out in 96 well polypropylene plates. Each reaction well contained 25 mM HEPES pH 7.5, 10 mM magnesium acetate and 50 μM unlabeled ATP. […] The reaction proceeded either for one hour or overnight at 30° C.
Following incubation, 20 μl of reaction mixture was transferred to a high capacity streptavidin coated filter plate (SAM-streptavidin-matrix, Promega) prewetted with phosphate buffered saline. […] Filter plates were air dried and 20 μl of scintillant was added. The plates were sealed and counted.

[1] = activated human p38 kinase alpha, PHAS-I substrate, 50 μM unlabeled ATP, read-out: p38 kinase IC50
[2] = p38α in vitro, PHAS-I assay procedure, read-out: p38^1 IC50

T1 sequence (Q16539 whole entry): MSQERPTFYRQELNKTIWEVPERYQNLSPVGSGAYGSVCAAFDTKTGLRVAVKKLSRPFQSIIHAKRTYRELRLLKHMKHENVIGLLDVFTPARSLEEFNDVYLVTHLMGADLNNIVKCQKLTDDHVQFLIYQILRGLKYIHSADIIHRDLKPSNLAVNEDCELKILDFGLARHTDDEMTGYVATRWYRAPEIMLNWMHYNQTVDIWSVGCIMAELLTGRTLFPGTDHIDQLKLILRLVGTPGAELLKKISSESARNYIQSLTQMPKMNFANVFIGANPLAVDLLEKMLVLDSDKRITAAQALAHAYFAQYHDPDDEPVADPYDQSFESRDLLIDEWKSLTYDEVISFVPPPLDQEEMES

SMILES | inhibition at 1 µM [%] | also measured
Cc1n[nH]c(-c2ccccc2O)c1-c1ccncc1 [Example A-16] | – | IC50 [1]: 3800 nM
COc1cc(F)cc(-c2[nH]nc(C)c2-c2ccncc2)c1 [Example A-25, 4-{5-(3-Fluoro-5-methoxyphenyl)-3-methyl-3-methyl-1H-pyrazol-4-yl}pyridine] | – | IC50 [1]: 2600 nM
Fc1ccc(-c2n[nH]c(NCCN3CCOCC3)c2-c2ccncc2)cc1 [Example A-218, N-[5-(4-fluorophenyl)-4-(4-pyridinyl)-1H-pyrazol-3-yl]-4-morpholineethanamine] | – | IC50 [2]: 44 nM
Fc1ccc(CNc2cc(-c3cn(CCN4CCOCC4)nc3-c3ccc(F)cc3)ccn2)cc1 [Example A-276, N-[(4-fluorophenyl)methyl]-4-[3(or 5)-(4-fluorophenyl)-1-[[2-(4-morpholinyl)ethyl]-1H-pyrazol-4-yl]-2-pyridinamine] | – | IC50 [2]: 176 nM
Fc1ccc(-c2n[nH]cc2-c2ccnc(NC3CCNCC3)c2)cc1 [Example A-277, 4-[3-(4-fluorophenyl)-1H-pyrazol-4-yl]-N-4-piperadinyl-2-pyridinamine] | – | IC50 [2]: 26 nM
OCCNc1cc(-c2c[nH]nc2-c2ccc(F)cc2)ccn1 [Example A-280] | – | IC50 [2]: 134 nM
Cn1cc(-c2ccnc(NCCO)c2)c(-c2ccc(F)cc2)n1 [Example A-281, 2-[[4-[3-(4-fluorophenyl)-1-methyl-1H-pyrazol-4-yl]-2-pyridinyl]amino]ethanol] | – | IC50 [2]: 53 nM
OCCn1cc(-c2ccnc(NCc3ccc(F)cc3)c2)c(-c2ccc(F)cc2)n1 [Example A-283, 3 (or 5)-(4-fluorophenyl)-4-[2-[[(4-fluorophenyl)methyl]amino]-4-pyridinyl]-1H-pyrazole-1-ethanol] | – | IC50 [2]: < 100 nM
Fc1ccc(CNc2cc(-c3cn(CCN4CCOCC4)nc3-c3ccc(F)cc3)ccn2)cc1 [Example A-285, N-[(4-fluorophenyl)methyl]-4-[3-(4-fluorophenyl)-1-[2-(4-morpholinyl)ethyl]-1H-pyrazol-4-yl]-2-pyridinamine] | – | IC50 [2]: < 100 nM
OCCn1cc(-c2ccnc(NCc3ccc(F)cc3)c2)c(-c2ccc(F)cc2)n1 [Example A-289, 3-(4-fluorophenyl)-4-[2-[[(4-fluorophenyl)methyl]amino]-4-pyridinyl]-1H-pyrazole-1-ethanol] | – | IC50 [2]: < 100 nM
O=C(O)CNc1[nH]nc(-c2ccc(F)cc2)c1-c1ccncc1 [Example A-293, N-[5-(4-fluorophenyl)-4-(4-pyridinyl)-1H-pyrazol-3-yl]glycine] | – | IC50 [2]: 730 nM
N#Cc1ccc(C(=O)NCc2[nH]nc(-c3ccc(F)cc3)c2-c2ccncc2)cc1 [Example B-0001] | – | P38 alpha kinase % inhib @ conc.: 53.0% @ 1.0 uM
O=C(NCc1[nH]nc(-c2ccc(F)cc2)c1-c1ccncc1)[C@@H]1C[C@@H]1c1ccccc1 [Example B-0002] | – | P38 alpha kinase % inhib @ conc.: 71.1% @ 1.0 uM
COC(=O)C(=O)NCc1[nH]nc(-c2ccc(F)cc2)c1-c1ccncc1 [Example B-0025] | – | P38 alpha kinase % inhib @ conc.: 89.0% @ 1.0 uM
O=C(NCc1[nH]nc(-c2ccc(F)cc2)c1-c1ccncc1)c1ccc(OC(F)(F)F)cc1 [Example B-0028] | – | P38 alpha kinase % inhib @ conc.: 69.0% @ 1.0 uM
O=C(NCc1[nH]nc(-c2ccc(F)cc2)c1-c1ccncc1)c1cccc2ccccc12 [Example B-0037] | – | P38 alpha kinase % inhib @ conc.: 91.0% @ 1.0 uM
O=C(CCC1CC=CC1)NCc1[nH]nc(-c2ccc(F)cc2)c1-c1ccncc1 [Example B-0038] | – | P38 alpha kinase % inhib @ conc.: 71.0% @ 1.0 uM
O=C(NCc1[nH]nc(-c2ccc(F)cc2)c1-c1ccncc1)C(F)(F)C(F)(F)C(F)(F)F [Example B-0046] | – | P38 alpha kinase % inhib @ conc.: 96.0% @ 1.0 uM
CCC(C(=O)NCc1[nH]nc(-c2ccc(F)cc2)c1-c1ccncc1)c1ccccc1 (stereo not drawn) [Example B-0048] | – | P38 alpha kinase % inhib @ conc.: 94.0% @ 1.0 uM
Cc1cc(C)c(C(=O)NCc2[nH]nc(-c3ccc(F)cc3)c2-c2ccncc2)c(C)c1 [Example B-0049] | 88 | –
O=C(NCc1[nH]nc(-c2ccc(F)cc2)c1-c1ccncc1)c1cc(C(F)(F)F)ccc1F [Example B-0050] | – | P38 alpha kinase % inhib @ conc.: 73% @ 1.0 uM
O=C(NCc1[nH]nc(-c2ccc(F)cc2)c1-c1ccncc1)c1cccnc1Cl [Example B-0053] | 95 | –
CCOc1ccc2ccccc2c1C(=O)NCc1[nH]nc(-c2ccc(F)cc2)c1-c1ccncc1 [Example B-0059] | 83 | –

SMILES | inhibition at 1 µM [%] | also measured
O=C(NCc1[nH]nc(-c2ccc(F)cc2)c1-c1ccncc1)c1ccccc1 [Example B-0063] | 96 | –
Cc1cccc(C(=O)NCc2[nH]nc(-c3ccc(F)cc3)c2-c2ccncc2)c1 [Example B-0067] | 91 | –
O=C(NCc1[nH]nc(-c2ccc(F)cc2)c1-c1ccncc1)c1cccc(F)c1 [Example B-0069] | 96 | –
COc1cc(OC)cc(C(=O)NCc2[nH]nc(-c3ccc(F)cc3)c2-c2ccncc2)c1 [Example B-0072] | 77 | –
O=C(NCc1[nH]nc(-c2ccc(F)cc2)c1-c1ccncc1)c1ccccc1F [Example B-0074] | 92 | –
COc1ccc(C(=O)NCc2[nH]nc(-c3ccc(F)cc3)c2-c2ccncc2)c(OC)c1 [Example B-0086] | 91 | –
COC(=O)CC(=O)NCc1[nH]nc(-c2ccc(F)cc2)c1-c1ccncc1 [Example B-0091] | 96 | –
O=C(OCc1ccccc1C(=O)NCc1[nH]nc(-c2ccc(F)cc2)c1-c1ccncc1)c1ccccc1 [Example B-0092] | 97 | –
O=C(NCc1[nH]nc(-c2ccc(F)cc2)c1-c1ccncc1)C1CCCN1C(=O)C(F)(F)F (stereo not drawn) [Example B-0094] | – | P38 alpha kinase % inhib @ conc.: 96% @ 1.0 uM
O=C(NCc1[nH]nc(-c2ccc(F)cc2)c1-c1ccncc1)c1cc(F)ccc1F [Example B-0095] | 98 | –
CC(=O)Nc1nc(C)c(S(=O)(=O)NCc2[nH]nc(-c3ccc(F)cc3)c2-c2ccncc2)s1 [Example B-0097] | – | inhibition at 10 µM: 72%
Cc1cc(C)c(S(=O)(=O)NCc2[nH]nc(-c3ccc(F)cc3)c2-c2ccncc2)c(C)c1 [Example B-0109] | 45 | –
O=[N+]([O-])c1ccccc1CS(=O)(=O)NCc1[nH]nc(-c2ccc(F)cc2)c1-c1ccncc1 [Example B-0112] | 97 | –
O=S(=O)(NCc1[nH]nc(-c2ccc(F)cc2)c1-c1ccncc1)c1cccs1 [Example B-0121] | 79 | –
CCCCCCCCCCS(=O)(=O)NCc1[nH]nc(-c2ccc(F)cc2)c1-c1ccncc1 [Example B-0125] | – | inhibition at 10 µM: 70%
O=S(=O)(NCc1[nH]nc(-c2ccc(F)cc2)c1-c1ccncc1)c1ccc(Cl)cc1Cl [Example B-0126] | 66 | –
COc1ccc(OC)c(S(=O)(=O)NCc2[nH]nc(-c3ccc(F)cc3)c2-c2ccncc2)c1 [Example B-0130] | 69 | –
COc1ccc(S(=O)(=O)NCc2[nH]nc(-c3ccc(F)cc3)c2-c2ccncc2)cc1OC [Example B-0131] | 43 | –
O=S(=O)(NCc1[nH]nc(-c2ccc(F)cc2)c1-c1ccncc1)c1ccccc1F [Example B-0133] | 51 | –
COc1cc(C)c(S(=O)(=O)NCc2[nH]nc(-c3ccc(F)cc3)c2-c2ccncc2)c(C)c1C [Example B-0137] | 41 | –
CCCCN(CCCC)c1cccc2c(S(=O)(=O)NCc3[nH]nc(-c4ccc(F)cc4)c3-c3ccncc3)cccc12 [Example B-0139] | – | inhibition at 10 µM: 54%
O=C(NCc1ccccc1)NCc1[nH]nc(-c2ccc(F)cc2)c1-c1ccncc1 [Example B-0151] | 43 | –
O=C(NCc1[nH]nc(-c2ccc(F)cc2)c1-c1ccncc1)Nc1ccc(Oc2ccccc2)cc1 [Example B-0155] | – | inhibition at 10 µM: 40%

More lines, main results first:

inhibition at 1 µM [%] | SMILES | also measured
90 | O=C(NCc1[nH]nc(-c2ccc(F)cc2)c1-c1ccncc1)c1ccno1 [Example B-0054] | –
62 | O=C(NCc1[nH]nc(-c2ccc(F)cc2)c1-c1ccncc1)c1ccc(C(F)(F)F)cc1F [Example B-0061] | –
94 | O=C(NCc1[nH]nc(-c2ccc(F)cc2)c1-c1ccncc1)c1ccc(F)cc1C(F)(F)F [Example B-0062] | –
92 | COc1cccc(OC)c1C(=O)NCc1[nH]nc(-c2ccc(F)cc2)c1-c1ccncc1 [Example B-0070] | –
91 | COc1cccc(C(=O)NCc2[nH]nc(-c3ccc(F)cc3)c2-c2ccncc2)c1 [Example B-0075] | –
47 | COC(=O)c1ccc(C(=O)NCc2[nH]nc(-c3ccc(F)cc3)c2-c2ccncc2)cc1 [Example B-0082] | –
56 | CC(C)[C@H]1CC[C@@H](C)C[C@@H]1OCC(=O)NCc1[nH]nc(-c2ccc(F)cc2)c1-c1ccncc1 [Example B-0084] | –
75 | O=[N+]([O-])c1ccccc1S(=O)(=O)NCc1[nH]nc(-c2ccc(F)cc2)c1-c1ccncc1 [Example B-0113] | –
82 | N#Cc1ccccc1S(=O)(=O)NCc1[nH]nc(-c2ccc(F)cc2)c1-c1ccncc1 [Example B-0127] | –
78 | O=S(=O)(NCc1[nH]nc(-c2ccc(F)cc2)c1-c1ccncc1)c1ccc(Cl)c(Cl)c1 [Example B-0135] | –
86 | O=S(=O)(NCc1[nH]nc(-c2ccc(F)cc2)c1-c1ccncc1)c1ccc(Cl)s1 [Example B-0144] | –
